Measurements reported in the supplement of paper PMC10307832.

Assays:
Assay in all cases: relative viability (nuclei count vs DMSO), 5 days (fraction); higher = more cells survive
Doramapimod + Pemetrexed = compound: Cc1ccc(-n2nc(C(C)(C)C)cc2NC(=O)Nc2ccc(OCCN3CCOCC3)c3ccccc23)cc1 [Doramapimod] + Nc1nc2[nH]cc(CCc3ccc(C(=O)N[C@@H](CCC(=O)O)C(=O)O)cc3)c2c(=O)[nH]1 [Pemetrexed] (partner 0.2 µM)
How it was run: (§1)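 Lung cancer cell lines were pin-tool dosed in 1536-well plates on the day after seeding, with either a lone drug or a fixed anchor-drug dose plus five library-drug doses (not always all listed) in √10 steps. Nuclei were counted on 4× images after 5 days. Relative viability is the ratio of treated-well to vehicle-well nuclei counts, with each value a median of duplicate plates.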

IPA-3 + Dasatinib = compound: C1=CC=C2C(=C1)C=CC(=C2SSC3=C(C=CC4=CC=CC=C43)O)O [IPA-3] + Cc1nc(Nc2ncc(C(=O)Nc3c(C)cccc3Cl)s2)cc(N2CCN(CCO)CC2)n1 [Dasatinib] (partner 0.075 µM)
How it was run: as §1

IPA-3 + Alpelisib = compound: C1=CC=C2C(=C1)C=CC(=C2SSC3=C(C=CC4=CC=CC=C43)O)O [IPA-3] + Cc1nc(NC(=O)N2CCC[C@H]2C(N)=O)sc1-c1ccnc(C(C)(C)C(F)(F)F)c1 [Alpelisib] (partner 2 µM)
How it was run: as §1

Doramapimod + OSI-027 = compound: Cc1ccc(-n2nc(C(C)(C)C)cc2NC(=O)Nc2ccc(OCCN3CCOCC3)c3ccccc23)cc1 [Doramapimod] + COc1cccc2cc(-c3nc([C@H]4CC[C@H](C(=O)O)CC4)n4ncnc(N)c34)[nH]c12 [OSI-027] (partner 0.5 µM)
How it was run: as §1

Row | Cell Line | relative viability (Doramapimod + Pemetrexed; first compound 0.02 µM) | relative viability (Doramapimod + Pemetrexed; first compound 0.06325 µM) | relative viability (Doramapimod + Pemetrexed; first compound 0.2 µM) | relative viability (Doramapimod + Pemetrexed; first compound 0.6325 µM) | relative viability (Doramapimod + Pemetrexed; first compound 2 µM) | relative viability (IPA-3 + Dasatinib; first compound 0.2 µM) | relative viability (IPA-3 + Dasatinib; first compound 0.6325 µM) | relative viability (IPA-3 + Dasatinib; first compound 2 µM) | relative viability (IPA-3 + Dasatinib; first compound 6.325 µM) | relative viability (IPA-3 + Dasatinib; first compound 20 µM) | relative viability (IPA-3 + Alpelisib; first compound 0.2 µM) | relative viability (IPA-3 + Alpelisib; first compound 0.6325 µM) | relative viability (IPA-3 + Alpelisib; first compound 2 µM) | relative viability (IPA-3 + Alpelisib; first compound 6.325 µM) | relative viability (IPA-3 + Alpelisib; first compound 20 µM) | relative viability (Doramapimod + OSI-027; first compound 0.02 µM) | relative viability (Doramapimod + OSI-027; first compound 0.06325 µM) | relative viability (Doramapimod + OSI-027; first compound 0.2 µM) | relative viability (Doramapimod + OSI-027; first compound 0.6325 µM) | relative viability (Doramapimod + OSI-027; first compound 2 µM)
1 | NCI-H1792 | 0.869 | 0.761 | 0.707 | 0.743 | 0.651 | 1.01 | 0.81 | 0.807 | 0.895 | 1.03 | 0.729 | 0.668 | 0.703 | 0.646 | 0.794 | 0.634 | 0.672 | 0.628 | 0.702 | 0.534
2 | NCI-H596 | 0.484 | 0.52 | 0.468 | 0.522 | 0.479 | 0.635 | 0.573 | 0.765 | 0.69 | 0.752 | 0.527 | 0.562 | 0.475 | 0.523 | 0.558 | 0.653 | 0.658 | 0.665 | 0.783 | 0.57
3 | NCI-H1563 | 0.83 | 0.768 | 0.811 | 1.13 | 0.787 | 0.418 | 0.506 | 0.447 | 0.537 | 0.442 | 0.987 | 0.982 | 1.06 | 0.949 | 1.07 | 0.739 | 0.765 | 0.733 | 0.761 | 0.73
4 | NCI-H460 | 0.0629 | 0.0546 | 0.0497 | 0.0506 | 0.0521 | 0.757 | 0.45 | 0.422 | 0.539 | 0.363 | 0.711 | 0.409 | 0.46 | 0.479 | 0.426 | 0.612 | 0.721 | 0.658 | 0.753 | 0.585
5 | HCC-366 | 0.147 | 0.197 | 0.212 | 0.186 | 0.178 | 0.892 | 0.613 | 0.604 | 0.656 | 0.679 | 0.499 | 0.425 | 0.432 | 0.477 | 0.333 | 0.837 | 0.918 | 0.937 | 1.08 | 0.853
6 | NCI-H2085 | 0.938 | 0.972 | 0.926 | 1.07 | 0.657 | 0.224 | 0.256 | 0.267 | 0.23 | 0.266 | 1.07 | 0.919 | 0.989 | 0.949 | 0.984 | 0.645 | 0.706 | 0.688 | 0.698 | 0.544
7 | PC-14 | 0.129 | 0.128 | 0.134 | 0.148 | 0.109 | 0.29 | 0.278 | 0.271 | 0.268 | 0.309 | 1.15 | 0.885 | 1 | 0.88 | 1.1 | 0.933 | 0.671 | 0.872 | 1.01 | 0.635
8 | HOP-62 | 0.242 | 0.306 | 0.295 | 0.326 | 0.309 | 0.807 | 0.577 | 0.71 | 0.589 | 0.67 | 1.08 | 0.926 | 0.952 | 0.945 | 0.93 | 0.828 | 0.81 | 0.906 | 0.923 | 0.741
9 | NCI-H2087 | 0.589 | 0.646 | 0.597 | 0.573 | 0.61 | 1.16 | 0.663 | 0.865 | 0.822 | 0.777 | 1.19 | 0.974 | 1.21 | 1.07 | 0.973 | 0.567 | 0.449 | 0.51 | 0.655 | 0.506
10 | NCI-H1793 | 0.885 | 0.963 | 0.957 | 0.918 | 0.657 | 0.442 | 0.325 | 0.362 | 0.381 | 0.43 | 0.786 | 0.677 | 0.757 | 0.739 | 0.785 | 0.238 | 0.262 | 0.278 | 0.36 | 0.242
11 | PC-3 [JPC-3] | 1.27 | 1.37 | 1.24 | 0.933 | 1.03 | 1.08 | 1.02 | 1.04 | 0.865 | 1.01 | 1.04 | 1.05 | 1.04 | 0.972 | 1.08 | 0.845 | 0.735 | 0.742 | 0.779 | 0.749
12 | H3255 | 0.577 | 0.56 | 0.562 | 0.559 | 0.525 | 0.387 | 0.249 | 0.428 | 0.335 | 0.284 | 0.798 | 0.774 | 0.48 | 0.657 | 0.863 | 0.684 | 0.618 | 0.526 | 0.679 | 0.518
13 | EMC-BAC-2 | 0.455 | 0.426 | 0.418 | 0.46 | 0.369 | 0.309 | 0.458 | 0.302 | 0.311 | 0.292 | 0.813 | 0.744 | 0.785 | 0.694 | 0.822 | 0.379 | 0.396 | 0.445 | 0.571 | 0.43
14 | CAL-12T | 1.02 | 1.08 | 1.25 | 1.22 | 0.947 | 0.627 | 0.418 | 0.379 | 0.409 | 0.524 | 1.38 | 1.14 | 1.18 | 0.999 | 1.27 | 0.627 | 0.672 | 0.579 | 0.711 | 0.532
15 | NCI-H650 | 0.741 | 0.938 | 0.976 | 1.06 | 0.9 | 0.461 | 0.498 | 0.439 | 0.438 | 0.44 | 1.43 | 1.11 | 1.18 | 1.04 | 1.55 | 0.544 | 0.626 | 0.61 | 0.608 | 0.52
16 | SK-MES-1 | 0.895 | 0.96 | 0.986 | 0.942 | 0.795 | 0.339 | 0.329 | 0.47 | 0.333 | 0.44 | 1.17 | 0.88 | 0.868 | – | 0.951 | 0.643 | 0.571 | 0.565 | 0.573 | 0.521
